Results: patent US20090239929A1, “N-Pyrrolidin-3-YL-Amide Derivatives As Serotonin and Noradrenalin Re-Uptake Inhibitors” (priority 2004, published 2009)
Counter-ions that a name gives are not always drawn.

Columns and labels:
[1] = target: T1, human noradrenaline transporter (hNET) (Homo sapiens, UniProt P23975); assay: SPA radioligand binding (3H-nisoxetine) at the human noradrenaline transporter; conditions: hNET membranes from HEK-293 cells, Cheng-Prusoff, geometric mean, read-out: NRI Ki
T1 construct: expressed in transfected cells; host or cells: HEK-293
T1 sequence (P23975 whole entry): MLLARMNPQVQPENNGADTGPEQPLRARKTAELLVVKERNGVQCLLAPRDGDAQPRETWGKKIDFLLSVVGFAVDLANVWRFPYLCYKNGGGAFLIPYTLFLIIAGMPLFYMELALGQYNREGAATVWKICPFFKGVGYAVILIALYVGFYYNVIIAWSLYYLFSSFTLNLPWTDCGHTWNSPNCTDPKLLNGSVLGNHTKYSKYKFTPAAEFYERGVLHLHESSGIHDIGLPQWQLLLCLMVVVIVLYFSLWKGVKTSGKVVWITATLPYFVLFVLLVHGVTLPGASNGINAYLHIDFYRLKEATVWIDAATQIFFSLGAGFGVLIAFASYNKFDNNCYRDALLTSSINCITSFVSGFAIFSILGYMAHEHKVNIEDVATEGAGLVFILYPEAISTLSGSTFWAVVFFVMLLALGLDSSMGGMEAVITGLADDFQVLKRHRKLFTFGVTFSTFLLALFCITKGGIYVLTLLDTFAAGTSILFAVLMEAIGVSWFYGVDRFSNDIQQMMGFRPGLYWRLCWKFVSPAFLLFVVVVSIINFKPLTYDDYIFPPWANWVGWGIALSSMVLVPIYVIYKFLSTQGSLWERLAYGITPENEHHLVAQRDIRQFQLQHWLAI
Experimental: (§1) The compounds were tested for biological activity by their ability to inhibit binding of selective radioligands at the human serotonin and noradrenaline transporters (SERT and NET, respectively), using scintillation proximity assay (SPA) technology. The SPA binding was performed using cellular membrane preparations prepared from cell lines expressing human cDNA encoding either SERT or NET (hSERT, hNET), using the radioligands ^3H-citalopram and ^3H-nisoxetine.
(§2) Human embryonic kidney cells (HEK-293) expressing each transporter were maintained as a continuous culture, using standard cell culture techniques, in 50 mL of growth medium (see Media and Buffers for composition) in 225 cm^2 flasks, at 37° C. in a humidified atmosphere with 5% CO2 present. Cells were passaged from a 90% confluent monolayer at a ratio of 1:3-1:4.
(§3) For cell harvesting, the growth medium was removed from the monolayer and the cells were incubated with cell dissociation solution (Sigma) until showing signs of dissociation. The cells were subsequently knocked from the base of the flask and pelleted by centrifugation for storage (frozen at −80° C.) prior to further use.
(§4) Cell pellets were thawed on ice and resuspended in 3 mL of membrane preparation buffer (see Media and Buffers for composition) per 1 mL of packed cell volume, using a vortex mixer to disperse the cell pellet.
(§5) After incubation on ice for 10 minutes, the suspension was homogenised for four individual 10 second intervals using a hand-held homogeniser. The homogenate was then centrifuged at 1075×g for 20 minutes at 4° C.
(§6) The supernatants were then collected and retained. Initial cell & nuclei pellets (P1) were subsequently rehomogenised and centrifuged using the conditions cited above, and the supernatants collected and pooled with those retained from the first spin.
(§7) The pooled supernatants were centrifuged at 35000×g for 30 minutes at 4° C., and the supernatants discarded. The pellets (P2) were then resuspended in 1 mL of membrane preparation buffer per 1 mL of the original packed cell volume. Protein concentrations were then measured and the membrane suspension was finally frozen in aliquots of set volume and stored at −80° C. prior to use in assays.
(§8) The specific SPA bead type differed for each transporter, wheat germ agglutinin-coated yttrium silicate (YSi WGA) SPA beads were used for hSERT and WGA-coated polyvinyltoluene (PVT WGA) SPA beads for hNET assays. For each batch of membrane used, optimal concentrations of bead and membrane were determined
(§9) Tritiated radioligands specific to each transporter (^3H-citalopram for hSERT and ^3H-nisoxetine for hNET) were used. The assay free radioligand concentration was expressed as a percentage of the total free radioligand concentration to give an estimate of the radioligand depletion. The radioligand depletion in assays for both transporters was less than 30% to ensure that there was sufficient radioligand available for binding. The ligand depletion value was also used for selecting the optimal assay conditions when using new batches of membranes.
(§10) The affinity of the specific radioligand for the respective transporter was determined for each membrane batch at the selected protein and bead concentrations. This was achieved by the determination of the KD, the concentration of free radioligand at which 50% of the transporter binding sites were occupied. The mean KD for a radioligand at a batch of membranes was determined from data from a minimum of three separate assays. The mean KD was subsequently used for all assays using the membrane batch profiled to enable determination of Ki values of compounds studied using the method determined by Cheng and Prussoff (Cheng Y C and Prusoff W H. Relationship between the inhibition constant (Ki) and the concentration of inhibitor which causes 50% inhibition of an enzymatic reaction. Biochem Pharmacol 1973; 22:2099-[…].) […]

[2] = target: T2, human serotonin transporter (hSERT) (Homo sapiens, UniProt P31645); assay: SPA radioligand binding (3H-citalopram) at the human serotonin transporter; conditions: hSERT membranes from HEK-293 cells, Cheng-Prusoff, geometric mean, read-out: SRI Ki
T2 construct: expressed in transfected cells; host or cells: HEK-293
T2 sequence (P31645 whole entry): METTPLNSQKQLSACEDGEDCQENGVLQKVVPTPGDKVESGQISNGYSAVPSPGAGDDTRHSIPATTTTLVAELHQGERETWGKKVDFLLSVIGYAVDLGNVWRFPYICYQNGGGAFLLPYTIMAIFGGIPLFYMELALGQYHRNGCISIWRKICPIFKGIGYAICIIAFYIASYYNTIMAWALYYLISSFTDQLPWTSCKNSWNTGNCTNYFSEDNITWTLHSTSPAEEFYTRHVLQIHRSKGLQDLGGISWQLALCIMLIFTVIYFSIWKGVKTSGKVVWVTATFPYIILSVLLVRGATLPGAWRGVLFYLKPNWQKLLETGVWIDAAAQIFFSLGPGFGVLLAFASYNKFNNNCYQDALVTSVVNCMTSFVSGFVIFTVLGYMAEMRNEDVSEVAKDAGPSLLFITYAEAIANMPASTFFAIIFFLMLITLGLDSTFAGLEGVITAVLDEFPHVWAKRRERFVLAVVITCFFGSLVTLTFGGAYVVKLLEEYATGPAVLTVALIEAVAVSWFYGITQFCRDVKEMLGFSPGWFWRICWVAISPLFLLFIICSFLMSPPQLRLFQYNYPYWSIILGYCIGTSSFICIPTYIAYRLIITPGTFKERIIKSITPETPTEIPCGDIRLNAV
Experimental: as §1, §2, §3, §4, §5, §6, §7, §8, §9, §10

Row | SMILES | Ki [1] | Ki [2]
1 | O=C(c1ccccc1Cl)N(C1CC2CCC1C2)[C@H]1CCNC1 (stereo partly drawn) [Example 4, N-Bicyclo[2.2.1]hept-2-yl-2-chloro-N-[(3S)-pyrrolidin-3-yl]benzamide] | 25 nM | 6 nM
2 | O=C(c1cccc(Cl)c1Cl)N(C(C1CC1)C1CC1)[C@H]1CCNC1 [Example 10, 2,3-dichloro-N-(dicyclopropylmethyl)-N-[(3S)-pyrrolidin-3-yl]benzamide hydrochloride] | 72 nM | 11 nM
3 | O=C(c1ccccc1C(F)(F)F)N(C1CC2CCC1C2)[C@H]1CCNC1 (stereo partly drawn) [Example 3, N-Bicyclo[2.2.1]hept-2-yl-2-(trifluoromethyl)N-[(3S)pyrrolidin-3-yl]benzamide] | 28 nM | 30 nM

The remaining compounds from weak to strong by Ki [1], led by results:

Row | Ki [1] | Ki [2] | SMILES
4 | 58 nM | 21 nM | O=C(c1cccc(Cl)c1Cl)N(CCC(F)(F)F)[C@H]1CCNC1 [Example 5, 2,3-Dichloro-N-[(3S)-pyrrolidin-3-yl]-N-(3,3,3-trifluoropropyl)benzamide hydrochloride]
5 | 12 nM | 9 nM | O=C(c1cccc(Cl)c1Cl)N([C@H]1C[C@H]2CC[C@H]2C1)[C@H]1CCNC1 [Example 1, N-(1R,3r,5 S)-Bicyclo[3.2.0]hept-3-yl-2,3-dichloro-N-[(3S)-pyrrolidin-3-yl]benzamide]
6 | 10 nM | 1590 nM | CC(F)(F)CN(C(=O)c1ccccc1Oc1ccccc1)[C@H]1CCNC1 [Example 7, N-(2,2-Difluoropropyl)-2-phenoxy-N-[(3S)-pyrrolidin-3-yl]benzamide hydrochloride]
